The structures appear in SMILES notation. Converted amounts (≈) assume the structure as drawn. Bounds are passed on as bounds.

Data on three compounds can be found in patent publication EP0059554A2, “Beta-lactam antibiotics, a process for their preparation and their use in pharmaceutical compositions” (BEECHAM GROUP PLC, priority 1981, dated 1982).

Some test systems named below: Shigella sonnei MB11967; Bacillus subtilis A; Citrobacter freundii E8; Streptococcus faecalia I; Serratia marcescens US20; Proteus vulgaris W091; Escherichia coli ESS.
Common to all, as to assay: MIC in broth
Holding throughout (format): cell-based

The test system of assay [1] is Pseudomonas aeruginosa A [11].
Assay [2] concerns Klebsiella aerogenes A [T767].
The test system of assay [3] is Staphylococcus aureus 1517.
Assay [4] has as its system Staphylococcus aureus Russell [MB9].
Assay [5] deals with Proteus mirabilis 977 [13].
Another assay deals with Proteus morganii 1580. The note with it: Morganella morganii.
A further assay concerns Proteus rettgeri WM16. To be noted: Providencia rettgeri.
Assay [6] deals with Enterobacter cloacae N1 [T753].
Assay [7] concerns Escherichia coli 0111 [E8].
The test system of assay [8] is Staphylococcus aureus Oxford.
In assay [9] the test system is Salmonella typhimurium CT10. To be noted: Salmonella enterica.
Assay [10] relates to Escherichia coli JT39 [E96].
Assay [11] has as its system Streptococcus pyogenes CN10.
The subject of assay [12] is Streptococcus pneumoniae CN33.

In the case of `CC(=O)N/C=C/SC1=C(C(=O)O)N2C(=O)[C@H]([C@@H](C)n3cc(C(=O)O)nn3)[C@H]2C1` [Example 6, Disodium (5R,6S)-3-[(E)-2-acetamidoethenylthio]-6-[(R)-1-(4-carboxytriazol-1-yl)ethyl]-7-oxo-1-azabicyclo [3.2.0.] hept-2-ene-2-carboxylate], the MIC in assay [1] turned out to be 50 mg/L; in assay [2] it was 1.6 mg/L; against Shigella sonnei MB11967, 3.1 mg/L; in assay [3], 25 mg/L; with Bacillus subtilis A, 6.2 mg/L; against Citrobacter freundii E8 it was 25 mg/L. The MIC in [4] came to 6.2 mg/L; in assay [5], 12.5 mg/L; with Proteus morganii 1580, 12.5 mg/L; in the assay with Proteus rettgeri WM16 it was 3.1 mg/L; in assay [6] it was 25 mg/L; in the assay on Streptococcus faecalia I, 100 mg/L. For the same compound, the MIC in assay [7] was determined as 12.5 mg/L; in assay [8], 6.2 mg/L; in assay [9], 1.6 mg/L; against Serratia marcescens US20, 6.2 mg/L; in [10] it was 3.1 mg/L; in the assay on Proteus vulgaris W091 it was 12.5 mg/L. The compound further showed an MIC against Escherichia coli ESS of 1.6 mg/L.
In the case of `CC(=O)N/C=C/SC1=C(C(=O)O)N2C(=O)[C@H]([C@@H](C)n3cc(C(=O)OCCN)nn3)[C@H]2C1` [Example 7, (5R,6S)-3-[(E)-2-acetamidoethenylthio]-6-[(R)-1-(4-(2-aminoethyloxycarbonyl)triazol-1-yl]ethyl]-7-oxo-1-azabicyclo[3.2.0.]hept-2-ene-2-carboxylic acid], the MIC in assay [1] is 100 mg/L (≈ 222 µM); in assay [11], 0.4 mg/L (≈ 0.888 µM); in assay [2], 3.1 mg/L (≈ 6.88 µM); against Shigella sonnei MB11967, 1.6 mg/L (≈ 3.55 µM); in assay [3], 12.5 mg/L (≈ 27.7 µM); against Bacillus subtilis A, 0.8 mg/L (≈ 1.78 µM). In addition, the MIC with Citrobacter freundii E8 came to 0.8 mg/L (≈ 1.78 µM); in assay [4], 0.4 mg/L (≈ 0.888 µM); in assay [5], 25 mg/L (≈ 55.5 µM); in the assay with Proteus rettgeri WM16, 6.2 mg/L (≈ 13.8 µM); in assay [6], 1.6 mg/L (≈ 3.55 µM); with Streptococcus faecalia I, 50 mg/L (≈ 111 µM). For the same compound, the MIC was determined as 1.6 mg/L (≈ 3.55 µM) in [7]; 0.4 mg/L (≈ 0.888 µM) in assay [8]; 1.6 mg/L (≈ 3.55 µM) in [9]; 3.1 mg/L (≈ 6.88 µM) with Serratia marcescens US20; 0.8 mg/L (≈ 1.78 µM) in assay [10]; 25 mg/L (≈ 55.5 µM) in the assay with Proteus vulgaris W091.
For the compound `CC(=O)NCCSC1=C(C(=O)O)N2C(=O)[C@H]([C@@H](C)n3cc(C(=O)O)nn3)[C@H]2C1` [Example 4, Disodium (SR,6S) - 3 - (2 - acetamidoethylthio) - 6 - [(R) - 1 - (4 - carboxytriazol - 1 - yl)ethyl] - 7 - oxo - 1 - azabicyclo [3.2.0.]hept - 2 - ene - 2 - carboxylate.], the MIC is 100 mg/L in assay [1]; 1.6 mg/L in [11]; 3.1 mg/L in assay [2]; 12.5 mg/L against Shigella sonnei MB11967; above 100 mg/L in [3]; 3.1 mg/L against Bacillus subtilis A. Besides, the MIC was 1.6 mg/L against Citrobacter freundii E8; 6.2 mg/L in [4]; 12.5 mg/L in assay [5]; 25 mg/L against Proteus morganii 1580; 6.2 mg/L against Proteus rettgeri WM16; 3.1 mg/L in [6]. Besides, the minimal inhibitory concentration (MIC) in assay [12] amounted to 1.6 mg/L; in the assay with Streptococcus faecalia I it was 100 mg/L; in [8], 6.2 mg/L; in assay [9], 6.2 mg/L; in the assay on Serratia marcescens US20, 6.2 mg/L; in assay [10], 3.1 mg/L. The MIC was 6.2 mg/L in the assay on Proteus vulgaris W091 and 1.6 mg/L against Escherichia coli ESS.

In general, MIC refers to the smallest concentration in the dilution series that meets the test's criterion for growth inhibition. Read a low MIC as greater potency.
